Measured values reported in ChEMBL document CHEMBL5729731, “Imidazole-containing inhibitors of ALK2 kinase” (2023).

Biological target: T1, Activin receptor type-1 (Homo sapiens, UniProt Q04771)
T1 sequence (Q04771 whole entry): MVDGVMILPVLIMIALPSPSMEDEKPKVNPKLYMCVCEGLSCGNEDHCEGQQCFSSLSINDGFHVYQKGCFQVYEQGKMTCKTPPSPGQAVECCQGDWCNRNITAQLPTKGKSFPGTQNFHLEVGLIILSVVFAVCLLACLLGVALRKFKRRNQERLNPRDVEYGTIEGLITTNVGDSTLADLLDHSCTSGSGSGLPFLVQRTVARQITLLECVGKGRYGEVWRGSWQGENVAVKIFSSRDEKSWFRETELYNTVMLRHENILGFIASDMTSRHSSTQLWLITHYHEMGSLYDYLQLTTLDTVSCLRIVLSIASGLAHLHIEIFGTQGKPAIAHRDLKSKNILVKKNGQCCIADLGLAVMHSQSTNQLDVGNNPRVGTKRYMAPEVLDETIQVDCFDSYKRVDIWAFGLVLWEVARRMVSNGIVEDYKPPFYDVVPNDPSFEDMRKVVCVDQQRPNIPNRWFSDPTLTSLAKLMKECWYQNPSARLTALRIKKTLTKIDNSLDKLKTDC
Experiment: Biochemical assay: Biochemical assays to measure the inhibitory effects of the compounds were performed by ThermoFisher Scientific (Life Technologies). ALK2 inhibition was tested using LanthaScreen Eu Kinase Binding Assay screening protocol.

IC50: < 0.1 µM
Structure (SMILES): COc1cc(-n2cnc(Nc3nc(-c4cccc(CO)c4)nc4sc(CO)cc34)c2)cc(OC)c1OC
